From patent US7662941B2, “Embryonic stem cell self maintenance and renewal reporter” (The Trustees of the University of Princeton - Princeton …, priority 2005, dated 2010)
Like-named read-outs stand apart in the source and are kept apart here.

How the values were obtained:
Format in all cases: cell-based, mouse
[1] = test system: Nanog/GFP expression in NeFREC(g); assay: Nanog/GFP expression of NeFREC(g) clones in response to RA, flow cytometry
Method: ES cell growth and differentiation. ES cells were maintained on gelatin-coated tissue culture plates in Dulbecco's Modified Eagels Medium (DMEM; Invitrogen/Gibco) supplemented with 15% fetal calf serum (FCS), 1 mM sodium pyruvate, 2 mM L-glutamine (Invitrogen/Gibco), 0.1 mM non-essential amino acids (Invitrogen/Gibco), 100 U/ml penicillin, 100 μg/ml streptomycin, 1×10^−4 M 2-Mercaptoethanol (2-ME) and 1000 U/ml leukemia inhibitory factor (LIF; ESGROW, Chemicon), henceforth referred to as ES medium. Medium was changed every day and cells were split every second day.
One day prior to differentiation cells were plated on gelatinized culture dishes in the aforementioned medium. Differentiation was induced either by removal of LIF or removal of LIF and addition of retinoic acid (RA, Sigma) if grown in ES medium or either LIF or Bmp4 or both if grown in SF-ES medium.
Cell surface staining, FACS analysis and Cell Sorting. Standard conditions were used to stain the cells. Cell suspensions were analyzed on a FACS Sort (Becton Dickinson). Cell sorting was performed using a FacsVantage with DiVa Software (Becton Dickinson).
NeFREC(g) clones. To determine the dynamics of Nanog/GFP expression of NeFREC(g) clones in response to RA, 4 individual clones (numbers 4, 9, 20 and 23) were analyzed in detail (FIG. 6a upper panel). 2.5×10^4 cells were plated in 0.5 ml ES medium the day before RA treatment. ES medium without LIF and supplemented with 10 μM RA (10 mM stock dissolved in 100% ethanol) was added to cells 24 hours post-plating (indicated as day 0). Nanog/GFP levels in treated cells were measured daily, day 0 to day 3, by flow cytometry. […] By day 3, less than 5% cells remain Nanog/GFP+ in response to RA treatment. […] Eef1b gene expression was used as loading control (5′-[…]-3′ (SEQ ID NO:17) and 5′-[…]-3′ (SEQ ID NO:18)).
To further determine the dynamics of Nanog/GFP expression of NeFREC(g), a RA dosage response experiment, ranging from 0.2 to 10 μM RA, was performed (FIG. 6B). An RA dosage of 0.2 μM is sufficient to induces a rapid and significant downregulation of Nanog/GFP expression in NeFREC(g). Omitting LIF from the ES medium also induces loss of Nanog/GFP expression in these cells at a slower rate compared to RA treatment. Forty percent of the cells still remain Nanog/GFP^+ by day 3. A RA pulse experiment was performed to determine the time required to initiate Nanog/GFP downregulation (i.e. differentiation) in response to 1 μM of RA (FIG. 6C). 2.5×10^4 cells were plated initially in 0.5 ml media per well in a 24-well plate the day before treatment. Cells were pulsed with 1 μM RA in ES medium without LIF for the indicated time periods and then changed to fresh ES medium. Nanog/GFP expression was measured after one day and two days of RA treatment.

NeFREC(g) = assay: Cell morphology of NeFREC(g) after compound treatment; conditions: day 2 of treatment
Method: Microscopy. Microscopy was performed on a Nikon Eclipse TE2000-U microscope with appropriate filter sets, CoolSnapES (black and white/fluorescence) and DXM1200F (color) cameras, and MetaView (black and white/fluorescence) and ACT (color) image-processing software.
(§1) For the chemical genomics screen 2.5×10^4 cells in 0.5 ml ES medium were plated per 24-well the day before treatment. Medium without LIF supplemented with the different compounds at indicated concentrations was added 24 hrs post-plating. Medium was changed daily. Nanog/GFP levels for each sample were measured by flow cytometry one and two days post drug treatment. Average percentages of Nanog/GFP^+ cells were calculated from duplicate samples (FIG. 10A).
Addition of RA, LY294002 or PD98059 to the cultures has different effects on ES cell colony morphology.

[2] = test system: Nanog/GFP expression in NeFREC(g); assay: Chemical genomics screen in NeFREC(g), ES medium without LIF, Nanog/GFP by flow cytometry; conditions: for Effect on RA-induced Nanog/GFP downregulation: agent plus RA compared to RA-induced differentiation condition; for Effect on Nanog/GFP expression / ES cell differentiation induced by omission of LIF: compound alone in ES medium without LIF, one and two days
Method: To validate the use of NeFRECs as an easy reporter cell in chemical genomics proof-of-principle studies were performed with several compounds that are known to show effects on ES cell self-renewal and differentiation or were previously tested in early embryonic development and cancer therapy. The compounds included in the experiment were RA (Sigma, Cat# R2625), Trichostatin A (TSA, Sigma, Cat# T8552, a histone deacetylase (HDAC) inhibitor), Ly294002, (CALBIOCHEM, Cat# 440202, a phosphatidylinositol 3-kinase (PI3K) inhibitor), Rapamycin (Rapa, Sigma, Cat# R0395, an inhibitor of mTOR), PD98059 (CALBIOCHEM, Cat# 513000, a MAP kinase (MAPK) inhibitor), 5-aza-2′-deoxycytidine (AZA, Sigma, Cat# A3656, an inhibitor of DNA methytransferases).
as §1

ES cells = test system: ES cells
[3] = test system: Nanog/GFP expression in NeFREC(g); assay: Combinatorial RA and TSA treatment of NeFREC(g), Nanog/GFP by flow cytometry
Method: In brief, 2.5×10^4 cells were plated in 0.5 ml ES medium. The HDAC inhibitor TSA was added at various concentrations 24 hours post-plating. One day after TSA treatment, medium was changed to ES medium without LIF plus 1.0 μM RA (indicated as day 0). Medium was changed and Nanog/GFP expression monitored by flow cytometry on a daily basis. […] 75 nM TSA rescued Nanog/GFP levels by more than 50% by day 2.

[4] = test system: Nanog/GFP expression in NeFREC(g); assay: Transient RNA shRNA transfection of NeFREC(g), Nanog/GFP by flow cytometry; conditions: for Nanog/GFP expression (NeFREC(g) bearing Nanog/GFP): by three days, from 90.9%
Method: (§2) RNA shRNA Transfection. For transfection of RNA shRNA, cells were harvested, washed with DMEM and resuspended at 2×10^5/ml in medium without penicillin and streptomycin. 250 μl of medium without penicillin and streptomycin was added per gelatin pre-coated well of a 24-well culture plate. In order to prepare the RNA shRNA transfection mixture per well, 10-20 μl of RNA shRNA [1 pmole/μl] was mixed with OptiMEM (Invitrogen/Gibco) in a final volume of 50 μl. In a separate tube, 1 μl Lipofectamine2000 (Invitrogen) was added to 49 μl of OptiMEM per sample. The RNA shRNA/OptiMEM and Lipofectamine/OptiMEM solutions were combined, mixed, incubated for 20 min at room temperature and added to the well. Then, 250 μl of cell solution, i.e., 5×10^4 cells/well, were added and the 24-well plate incubated in a humidified chamber in 5% CO2/air mixture at 37° C. Twenty-four hours after transfection, medium was replaced with appropriate medium with penicillin and streptomycin.
RNA shRNA against GFP (5′-[…] UAGACGUUGUGGCUGU-3′; SEQ ID NO:31) was transfected into NeFREC(g) as described in Example 1. Ten pmole of RNA shRNA against GFP reduced Nanog/GFP reporter expression in NeFREC(g) from 85.8% down to 18% 72 hours post-transfection (FIG. 11A). The reduction in Nanog/GFP fluorescence is RNA shRNA concentration-dependent.
The transcription factor Pou5f1 is required for ES cell maintenance and when reduced by more than 50% of wild-type levels results in differentiation towards trophectodermal cells (Niwa et al., 2000 Nat. Genet. 24:372-376). Therefore, 10 pmole of RNA shRNA against Pou5f1 (5′-[…] UAAGGCUGAGCUGCAA-3′; SEQ ID NO:32) was transfected into NeFREC(g).

[5] = test system: Nanog/GFP expression in NeFREC(g)-SF; assay: Transient RNA shRNA transfection of NeFREC(g)-SF, Nanog/GFP by flow cytometry; conditions: NeFREC(g)-SF in SF-ES medium, by day 2; from 94.8%
Method: Alternatively, ES cells were maintained on gelatin-coated tissue culture plates in a 1:1 mixture of Neurobasal with N2-supplement (Invitrogen/Gibco) and DMEM/F12 with B27 (Invitrogen/Gibco) supplemented with 10% fraction V bovine serum albumin (BSA; Sigma) and 100 U/ml penicillin, 100 μg/ml streptomycin, 1×10^−4 M 2-ME), 1000 U/ml LIF and 10 ng/ml bone morphogenic protein (Bmp) 4 (R&D Systems), henceforth referred to as SF-ES medium. Medium was changed every day and cells split every second day.
as §2, with “Twenty-four hours after transfection, medium was replaced with appropriate medium with penicillin and streptomycin.” left out

Molecule: CC1=C(/C=C/C(C)=C/C=C/C(C)=C/C(=O)O)C(C)(C)CCC1 [RA, retinoic acid]
- cells remaining Nanog/GFP+ ([1]; 10 μM RA, ES medium without LIF, by day 3): less than 5%
- GFP levels after RA pulse ([1]; 24-hour treatment with 1 μM RA in ES medium without LIF, then fresh ES medium, from more than 90%): 45%
- NeFREC(g)s in which the differentiated state is irreversibly fixed ([1]; after 24-hour differentiation pulse, 1 μM RA): about 50%
- RA dosage sufficient to induce rapid and significant downregulation of Nanog/GFP expression ([1]; dosage response 0.2 to 10 μM RA): 0.2 µM

Molecule: COc1cccc(-c2cc(=O)c3ccccc3o2)c1N [PD98059]
- ES cell colony morphology (NeFREC(g)): look more like NeFREC(g) cultured in ES medium alone
- Effect on RA-induced Nanog/GFP downregulation [2]: delay RA-induced Nanog/GFP downregulation
- Effect on Nanog/GFP expression / ES cell differentiation induced by omission of LIF [2]: blocked or delayed ES cell differentiation

Molecule: Nc1ncn([C@H]2C[C@H](O)[C@@H](CO)O2)c(=O)n1 [AZA, 5-aza-2′-deoxycytidine]
- Cell death as indicated by floating cells in culture (ES cells): can cause cell death at too high concentrations
- Effect on RA-induced Nanog/GFP downregulation [2]: delay RA-induced Nanog/GFP downregulation
- Effect on Nanog/GFP expression / ES cell differentiation induced by omission of LIF [2]: blocked or delayed ES cell differentiation

Molecule: CC(/C=C/C(=O)NO)=C\[C@@H](C)C(=O)c1ccc(N(C)C)cc1 [TSA, Trichostatin A]
- Rescue of Nanog/GFP levels ([3]; 75 nM TSA, then 1.0 μM RA, by day 2): more than 50%
- TSA concentrations at which RA-induced downregulation of Nanog/GFP is markedly reduced ([3]; TSA 24 h, then ES medium without LIF plus 1.0 μM RA): higher than 75 nM
- Concentration sufficient to kill all ES cells (ES cells; by day 3 of culture): 0.3 µM
- Cell death as indicated by floating cells in culture (ES cells; too high concentrations): can cause cell death at too high concentrations
- Effect on RA-induced Nanog/GFP downregulation [2]: delay RA-induced Nanog/GFP downregulation
- Effect on Nanog/GFP expression / ES cell differentiation induced by omission of LIF [2]: blocked or delayed ES cell differentiation

B1: RNA shRNA against GFP: RNA shRNA against GFP, SEQ ID NO:31 (nucleic acid)
chain: AGCCACAACGUCUAUAUCAUGGCCGACAAGUUGGCUUGUCGGCCAUGAUAUAGACGUUGUGGCUGU
modifications: siRNA; RNA, backbone not given here; hairpin shRNA transfected as RNA
- Concentration dependence of reduction in Nanog/GFP fluorescence ([4]; 0 to 10 pmole RNA shRNA): concentration-dependent
- Nanog/GFP reporter expression ([4]; 10 pmole RNA shRNA, 72 hours post-transfection, from 85.8%): 18%
- Nanog/GFP expression (NeFREC(g) bearing Nanog/GFP) ([4]; 10 pmole RNA shRNA): 21.2%
- Nanog/GFP levels [5]: 14.1%

B2: RNA shRNA against Pou5f1: RNA shRNA against Pou5f1, SEQ ID NO:32 (nucleic acid)
chain: GCAGCUCAGCCUUAAGAACAUGUGUAAGCUUUGGAGCUUACACAUGUUCUUAAGGCUGAGCUGCAA
modifications: siRNA; RNA, backbone not given here; hairpin shRNA transfected as RNA
- Nanog/GFP expression (NeFREC(g) bearing Nanog/GFP) ([4]; 10 pmole RNA shRNA): 73.1%
- Nanog/GFP levels [5]: 68.5%
